{
  "source": "patent US20190249215A1",
  "about": "“Three-Dimensional Cell-Derived Extracellular Matrix/Gel Systems” (Institute For Cancer Research d/b/a The Research Institute …, priority 2018, published 2019)",
  "key": {"[1]": {"system": "phospho-p90RSK", "conditions": "KRAS cells within CAF-CDMs produced onto patho gels; 20 μM U0126 overnight", "experimental": "(§1) At the end of the experiments, KRAS cells were lysed with cell lysis buffer from Cell Signaling Technology (Danvers, Mass.) supplemented with Pierce™ Phosphatase and protease Inhibitor Mini Tablets (Cat Nos. 88667 and 88665, respectively) from Thermo Fisher Scientific (Waltham, Mass.). Proteins were SDS-PAGE dissolved and transferred to PVDF membranes. Blots were incubated with the following primary antibodies: Rabbit anti-human Phospho-p44/42 ERK1/2 (Thr^202/Tyr^204)(Cat No. 4370) and rabbit anti-human total-p44/42 ERK1/2 (Cat No. 9102) obtained from Cell Signaling Technology (Danvers, Mass.). Anti-phospho-p90RSK1 (Ser^380) (Cat No. 04-418) and anti-human glyceraldehyde 3-phosphate dehydrogenase (GAPDH) (Cat No. MAB374) obtained from Millipore (Billerica, Mass.). Horseradish peroxidase-conjugated, anti-species matched, secondary antibodies were obtained from Sigma Aldrich (St. Louis, Mo.). Protein bands were visualized using the Protein Simple FluorChemE System, (San Jose, Calif.). Nuclear levels of pERK1/2 were assessed using the Subcellular Protein Fractionation Kit (Thermo Scientific, Waltham, Mass.). Isolation of nuclear versus whole cell fractions was carried out according to the manufacturer's instructions."}, "[2]": {"system": "pERK1/2", "conditions": "KRAS cells within CAF-CDMs produced onto patho stiffness gels; 20 μM U0126 overnight; fractionated cell lysates", "experimental": "as §1"}, "[3]": {"system": "RFP-expressing KRAS cell spheroids", "assay": "Spheroid spreading assay", "format": "cell-based, human", "conditions": "KRAS spheroids within CAF-CDMs produced onto patho stiffness gels; 20 μM U0126 overnight", "experimental": "Red fluorescence protein (RFP)-expressing KRAS cells generated in our laboratory were trypsinized and suspended in spheroid formation media (Irvine Scientific, Santa Ana, Calif., Catalog ID: 91130) and allowed to incubate overnight. Thirty μl drops containing 2.5×10^3 cells were carefully placed on a lid of a sterile petri dish. The dish was filled with 5 mL media and the lid with the “hanging drops” was carefully placed, drops face down, and incubated overnight. Spheroids were removed from the lids, one by one, placed onto the diverse substrates or CDMs, and allowed to adhere for 2 hours. Subsequently, the spheroid formation media was diluted with regular pancreatic epithelial growth media (see above). Following a 48-hour incubation, cell spreading was visualized using an inverted fluorescence microscope equipped with epifluorescent image acquisition capabilities. Data were normalized to the initial size of each spheroid at time 0 hour. When indicated, spheroids were treated overnight with 20 μM of the MEK1/2 inhibitor U0126 from Calbiochem or DMSO, while siRNA transfection. The images were processed using MetaMorph 7.8.1.0 software (Molecular Devices, Downingtown, Pa.). A minimum of 5 spheres per condition were analyzed in at least three independent experiments."}},
  "data": [
    {"smiles": "N#CC(=C(N)Sc1ccccc1N)C(C#N)=C(N)Sc1ccccc1N", "note": "[U0126, 1,4-diamino-2,3-dicyano-1,4-bis[2-aminophenylthio] butadiene]", "values": [
      {"measurement": "phosphorylation levels of p90 ribosomal S6 kinase (pho-p90RSK)", "setting": "[1]", "value": "downregulated"},
      {"measurement": "nuclear levels of pERK1/2", "setting": "[2]", "value": "significant loss of pERK1/2 at nuclear locations"},
      {"measurement": "KRAS spheroid area spread", "setting": "[3]", "value": "significant reduction in KRAS spheroid spread"}
    ]}
  ]
}
